The text below walks through data of US20190093079A1, “METHODS FOR CONTROLLED PROLIFERATION OF STEM CELLS / GENERATING INNER EAR HAIR CELLS USING GSK-3-ALPHA INHIBITORS” (Frequency Therapeutics, Inc., priority 2016, published 2019).

The target in assay [1] is T1, GSK3-alpha (Homo sapiens, UniProt P49840). The settings on record: cited from earlier work; for IC50: potency = IC50, literature values.
The test system of another assay is noise-damaged inner ear. Description: Hearing recovery (ABR threshold) in noise damaged CBA/CaJ mice. The format is in vivo. The following applies: trans-tympanic Poloxamer gel 24 h after noise exposure, ABR at 30 days, 5-40 kHz; FIG. 4. As for the experimental part:
For the mouse studies, a 17-19% (w/w) stock solution of poloxamer 407 gel (Sigma-Aldrich) was prepared by slowly adding it to cold 1× phosphate-buffered saline at pH 7.4. This solution is liquid when refrigerated or at room temperature but solidifies at body temperature. The gel was tinted blue with Evans blue dye (50 ppm) for visualization during administration.
A formulation was then prepared with 87.6 mg/ml VPA and 55.6 mg/ml CHIR99021 or 87.6 mg/ml VPA and 50 mg/ml GSK3 inhibitor XXII in 17-19% Poloxamer 407 with 5% DMSO.
CBA/CaJ mice were deafened in a noise chamber by exposure to an 8-16 kHz octave band noise band for 2 hours at 120 dB SPL. 24 hours after noise exposure, their hearing was assessed by measuring auditory brainstem responses (ABRs). The minimum sound pressure level (SPL) required for visual detection of ABR Wave I was determined at 5, 10, 20, 28.3, and 40 kHz. Following ABR measurements, a trans-tympanic injection of a Poloxamer gel drug mixture was delivered to fill the middle ear cavity. After 30 days, ABR was assessed and the improvement in hearing threshold from 24 hrs to 30 days after noise exposure was determined.

The test system of assay [2] is organ of Corti isolated from Lgr5-GFP mice. Description: Cochlear explant: organ of Corti treated ex vivo. The format is cell-based, mouse. The protocol: For cochlear explant studies, organ of Corti isolated from Lgr5-GFP mice were treated with either CHIR99021+VPA or GSK3-inhibitor XXII+VPA for 3 days. Organ of Corti were plated on a cover slip and bathed in media containing the drugs. Growth factors were not present. CHIR99021 (3 uM), GSK3-inhibitor XXII (0.3 uM), VPA (1 mM).

The test system of assay [3] is Lgr5-GFP inner ear progenitor cells. Description: Expansion of Lgr5-GFP inner ear progenitor cells in Matrigel 3D culture. The settings on record: 10 days culture, background of EGF, bFGF, IGF-1 and VPA; FIGS. 1A and 2A. Format: cell-based, mouse. The protocol: Isolation of stem cells from the inner ear: All animal studies were conducted under an approved institutional protocol according to National Institutes of Health guidelines. For experiments with neonatal mice (postnatal days 1-3), the cochleae were dissected in HBSS and the organ of Corti was separated from the stria vascularis and the modiolus. The organs of Corti were then treated with Cell Recovery Solution (Corning) for 1 h to separate cochlear epithelium from the underlying mesenchyme. Epithelia were then collected and treated with TrypLE (Life Technologies) for 15-20 minutes at 37° C. Single cells obtained by mechanical trituration were filtered (40 μm) and suspended in Matrigel (Corning) for 3D culture.
Cells were cultured in a 1:1 mixture of DMEM and F12, supplemented with Glutamax (GIBCO), N2, B27 (Invitrogen), EGF (50 ng/mL; Chemicon), bFGF (50 ng/mL; Chemicon), IGF1 (50 ng/mL; Chemicon) and a GSK3-alpha inhibitor. […]
Lgr5-positive cells were quantified after 10 days (D10) in culture in multiple conditions. […] The cells were then stained with propidium iodide (PI) and analyzed using a flow cytometer for Lgr5-GFP expression. The number of GFP-positive cells and the percentage of GFP-positive cells were quantified. […]
Lgr5 cell quantification: Cell culture media was removed and Tryple was added. […] Live Lgr5-GFP cell number was counted using PI staining and the Lgr5-GFP.

The target in assay [4] is T1, GSK3-alpha. Description: GSK3-alpha potency (IC50), kinase assay. The following applies: GSK3-alpha/GSK3-beta selectivity ratio = IC50 GSK3-beta divided by IC50 GSK3-alpha. The format is biochemical.
Another assay has as its target GSK3-beta (Homo sapiens, UniProt P49841). The following applies: potency = IC50; literature values; cited from earlier work.

“Also recorded” adds a separate entry of the source.

T1 sequence (P49840 whole entry, species assumed): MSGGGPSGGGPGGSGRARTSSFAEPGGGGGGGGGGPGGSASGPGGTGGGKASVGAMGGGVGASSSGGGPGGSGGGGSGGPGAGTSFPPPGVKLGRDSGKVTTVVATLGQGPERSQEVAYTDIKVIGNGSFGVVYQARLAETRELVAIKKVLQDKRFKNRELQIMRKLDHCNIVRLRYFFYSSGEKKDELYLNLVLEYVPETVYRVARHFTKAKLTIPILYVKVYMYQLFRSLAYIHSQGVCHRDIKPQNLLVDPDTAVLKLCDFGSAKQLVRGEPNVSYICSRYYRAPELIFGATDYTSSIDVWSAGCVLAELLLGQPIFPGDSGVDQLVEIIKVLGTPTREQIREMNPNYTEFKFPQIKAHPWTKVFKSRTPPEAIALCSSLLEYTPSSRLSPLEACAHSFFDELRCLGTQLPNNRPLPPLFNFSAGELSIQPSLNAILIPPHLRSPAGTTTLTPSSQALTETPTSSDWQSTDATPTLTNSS
GSK3-beta, sequence (P49841 whole entry, species assumed): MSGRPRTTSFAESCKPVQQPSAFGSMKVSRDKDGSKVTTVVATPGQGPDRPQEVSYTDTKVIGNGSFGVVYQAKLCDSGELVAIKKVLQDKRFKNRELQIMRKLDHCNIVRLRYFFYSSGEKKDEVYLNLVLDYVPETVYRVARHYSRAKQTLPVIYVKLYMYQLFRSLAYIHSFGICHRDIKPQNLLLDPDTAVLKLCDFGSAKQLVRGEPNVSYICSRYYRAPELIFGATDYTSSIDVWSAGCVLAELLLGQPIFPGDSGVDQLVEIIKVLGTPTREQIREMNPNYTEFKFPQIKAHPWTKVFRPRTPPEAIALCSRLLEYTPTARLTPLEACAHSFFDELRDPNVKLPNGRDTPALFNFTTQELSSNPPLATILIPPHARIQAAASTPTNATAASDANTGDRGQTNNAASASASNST

Consider `Cc1c[nH]c(-c2cnc(NCCNc3ccc(C#N)cn3)nc2-c2ccc(Cl)cc2Cl)n1` [CHIR99021], for which the “GSK3α versus GSK3β inhibition preference” value on GSK3-alpha [1] is reported as “preferentially inhibits GSK3β”.
As to `Cc1ccc(C(=O)Nc2c[nH]nc2C(=O)NCCCOC(C)C)cn1` [GSK-3b XXII], the hearing recovery result in the assay with noise-damaged inner ear was “evidence of hearing recovery”. Moreover, the “Lgr5-GFP expression in organ of Corti” value in assay [2] (3 days, 0.3 uM with VPA 1 mM, FIG. 3) is “increased Lgr5-GFP expression”. Further, in assay [2] (3 days, normal 1 row, FIG. 3), the “rows of inner hair cells” value was determined as 2 rows. Also, the “rows of outer hair cells” value in assay [2] (3 days, normal 3 rows, FIG. 3) was 6 rows. In addition, in assay [2] (in combination with VPA, FIG. 3, listed as GSK3 inhibitor XXII), the “hair cell number in organ of Corti” value was “increase in hair cell number; also recorded: increased number of hair cells”. Also, at GSK3-alpha [1], the “GSK3α versus GSK3β inhibition preference” value was “equally inhibits GSK3α and GSK3β”; the concentration for half-maximal inhibition (IC50) is 2.3 nM. Further, the “Expansion of Lgr5-GFP cells / Lgr5-GFP+ colonies” value in assay [3] was “large colonies of Lgr5-GFP+ cells were observed”.
For the compound `COc1ccccc1[C@@H]1C2=C(CC(C)(C)CC2=O)Nc2n[nH]c(C(F)(F)F)c21` [BRD1172], on GSK3-alpha [4], the “Ratio of Alpha to Beta” value came out at 3.3. Besides, the IC50 is 3 nM on GSK3-alpha [1] and 10 nM at GSK3-beta.
With `N#Cc1ccc2[nH]c(O)c(-c3ccc(CN4CCOCC4)cn3)c2c1` [AZD1080], the “GSK3α versus GSK3β inhibition preference” value on GSK3-alpha [1] is given as “preferentially inhibits GSK3α”. The “Expansion of Lgr5-GFP cells / Lgr5-GFP+ colonies” value in assay [3] is “large colonies of Lgr5-GFP+ cells were observed”.
With `O=C1NC(=O)[C@@H](c2cn3c4c(cccc24)CCC3)[C@@H]1c1c[nH]c2ccccc12` [Tivantinib], the IC50 at GSK3-alpha [1] was 659 nM; at GSK3-beta, 1870 nM.

The term IC50 denotes the concentration needed to halve the response being measured.
